Experiments:
[1] = test system: HUVEC; test: HUVEC assay, VEGF-stimulated endothelial cell proliferation; assay type: cell-based; settings: Homo sapiens, read-out: IC50 for inhibition of VEGF-stimulated endothelial cell proliferation
[2] = test system: HUVEC; test: HUVEC assay, basal endothelial cell proliferation; assay type: cell-based; settings: Homo sapiens, read-out: IC50 for inhibition of basal endothelial cell proliferation
[3] = test system: Calu-6 tumour xenograft; test: Calu-6 tumour xenograft in vivo solid tumour model; settings: once-daily oral, 28 days
[4] = test system: range of models; test: anti-tumour activity in a range of models; assay type: in vivo; settings: once-daily oral administration

For COc1cc2c(Oc3ccc4[nH]c(C)cc4c3F)ncnc2cc1OCCCN1CCCC1 [AZD2171, 4-(4-fluoro-2-methyl-1H-indol-5-yloxy)-6-methoxy-7-(3-(pyrrolidin-1-yl)propoxy)quinazoline], the IC50 [1] was 400 ± 200 pM, the IC50 [2] was > 500000 pM and the “inhibition of growth of Calu-6 tumour xenograft” value (from here on “inhibition”) ([3]; 1.5 mg/kg/day, P<0.01) was 49%. The “inhibition” value ([3]; 3 mg/kg/day, P<0.0001) was 69%, the “inhibition” value ([3]; 6 mg/kg/day, P<0.0001) was 91% and the anti-tumour activity [4] was “broad-spectrum anti-tumour activity”.
